Legend:
H1299 = experiment: Cellular proliferation assay (Alamar blue), H1299; assay type: cell-based; conditions: Homo sapiens, NCI-H1299; 10% FCS; 72 hours with compound; Alamar blue 4 h
How it was run: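 This proliferation assay on NCI-H1299 cells used an initial 24-hour compound-free incubation after seeding, followed by 72 hours of compound treatment with 10% FCS serum at 37° C. and 5% (v/v) CO2. Viable cells were quantified by a 4 h Alamar blue incubation and fluorescent plate reading at 544 nm/590 nm, and effects were expressed relative to control cells.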

PLK1 T210D (h) = PLK1 T210D (h) (Homo sapiens, UniProt P53350, T210D); experiment: PLK1 human kinase inhibition, SPA; assay type: biochemical; conditions: read-out: PLK1 pIC50 (converted)
How it was run: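 Radiometric SPA with PLK1 T210D (0.125 ng/ml) in 50 mM Hepes pH 8.0, 2 mM MnCl2, 1 mM DTT, 2 μM biotinylated peptide, 0.1 μM ATP plus 2 nM [γ-33P]ATP. 40 min at room temperature, EDTA stop. Phosphorylated substrate captured on streptavidin PVT beads, scintillation imaged.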

GSK3β (h) = GSK3β (h) (Homo sapiens, UniProt P49841); experiment: GSK-3β human kinase inhibition, SPA; assay type: biochemical; conditions: read-out: GSK3b pIC50 (converted)
How it was run: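 Scintillation proximity assay: GSK3β (1 μg/ml) with 1 μM biotinylated peptide, 1 μM ATP plus [γ-33P]ATP in Tris pH 7.4, MgCl2, DTT. 60 min at room temperature, stopped with EDTA and streptavidin PVT beads; phosphorylation read by Leadseeker imaging.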

AuroraB (h) = AuroraB (h) (Homo sapiens, UniProt Q96GD4); experiment: Aurora-B human kinase inhibition, SPA; assay type: biochemical; conditions: read-out: AuroraB pIC50 (converted)
How it was run: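 SPA with biotinylated peptide (3 μM) in 60 mM Hepes pH 7.5, Mg/Mn 3 mM each, 0.5 μM ATP plus [γ-33P]ATP, AuroraB at 0.5 μg/ml. The reaction runs 60 min at room temperature and is stopped with EDTA and streptavidin PVT beads. 33P-substrate is read by scintillation imaging.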

PLK4 (h) = PLK4 (h) (Homo sapiens, UniProt O00444); experiment: PLK-4 human kinase inhibition, scintillation proximity assay (SPA); assay type: biochemical; conditions: read-out: PLK4 pIC50 (converted)
CDK4/CyclinD1 (h) = CDK4/CyclinD1 (h) (Homo sapiens, UniProt P11802); experiment: CDK4/CyclinD1 human kinase inhibition, SPA with GST-pRb substrate; assay type: biochemical; conditions: read-out: CDK4 pIC50 (converted)
How it was run: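 Human CDK4/CyclinD1 (2.5 μg/ml) was incubated with 40 μg/ml GST-pRb and 2 nM [γ-33P]ATP in 50 mM Hepes pH 7.5, 8 mM NaF, 20 mM MgCl2, 1 mM DTT for 60 min at room temperature. EDTA stop with glutathione SPA beads; phosphorylation read by scintillation counting.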

HCT-116 = experiment: Cellular proliferation assay (Alamar blue), HCT-116; assay type: cell-based; conditions: Homo sapiens, 10% FCS, 72 hours with compound, Alamar blue 4 h
How it was run: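 Cells seeded 24 h without compound, then exposed to compounds for 72 h in 10% FCS at 37 °C, 5% CO2. Viability read by Alamar blue (resazurin 9 μg/ml) fluorescence at 544/590 nm after 6 h (U87-MG) or 24 h (A2780, MDA-MB-231) or 4 h (HCT-116) dye incubation; effect expressed relative to control cells.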

CDK1/CyclinB (h) = CDK1/CyclinB (h) (Homo sapiens, UniProt P06493); experiment: CDK1/CyclinB human kinase inhibition, Invitrogen's FRET assay (Z'lyte); assay type: biochemical; conditions: read-out: CDK1 pIC50 (converted)
How it was run: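 Z'lyte FRET assay: human CDK1/CyclinB (0.2 μg/ml) with 2 μM Ser/Thr peptide 12 and 10 μM ATP in 50 mM Hepes pH 7.5, MgCl2, EGTA, Brij-35, 60 min at room temperature. Protease development 60 min, then emission ratio 460/538 nm read with excitation at 390 nm.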

Sequence of AuroraB (h) (Q96GD4 whole entry): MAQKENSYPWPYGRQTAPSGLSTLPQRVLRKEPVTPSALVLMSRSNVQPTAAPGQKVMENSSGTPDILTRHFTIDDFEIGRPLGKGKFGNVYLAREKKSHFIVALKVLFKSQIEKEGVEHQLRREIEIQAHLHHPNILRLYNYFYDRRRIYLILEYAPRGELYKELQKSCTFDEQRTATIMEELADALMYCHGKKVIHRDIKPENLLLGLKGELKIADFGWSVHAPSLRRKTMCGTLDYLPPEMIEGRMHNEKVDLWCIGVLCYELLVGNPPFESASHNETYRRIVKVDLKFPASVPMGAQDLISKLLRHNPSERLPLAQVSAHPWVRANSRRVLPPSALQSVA
Sequence of PLK1 T210D (h) (P53350 whole entry T210D): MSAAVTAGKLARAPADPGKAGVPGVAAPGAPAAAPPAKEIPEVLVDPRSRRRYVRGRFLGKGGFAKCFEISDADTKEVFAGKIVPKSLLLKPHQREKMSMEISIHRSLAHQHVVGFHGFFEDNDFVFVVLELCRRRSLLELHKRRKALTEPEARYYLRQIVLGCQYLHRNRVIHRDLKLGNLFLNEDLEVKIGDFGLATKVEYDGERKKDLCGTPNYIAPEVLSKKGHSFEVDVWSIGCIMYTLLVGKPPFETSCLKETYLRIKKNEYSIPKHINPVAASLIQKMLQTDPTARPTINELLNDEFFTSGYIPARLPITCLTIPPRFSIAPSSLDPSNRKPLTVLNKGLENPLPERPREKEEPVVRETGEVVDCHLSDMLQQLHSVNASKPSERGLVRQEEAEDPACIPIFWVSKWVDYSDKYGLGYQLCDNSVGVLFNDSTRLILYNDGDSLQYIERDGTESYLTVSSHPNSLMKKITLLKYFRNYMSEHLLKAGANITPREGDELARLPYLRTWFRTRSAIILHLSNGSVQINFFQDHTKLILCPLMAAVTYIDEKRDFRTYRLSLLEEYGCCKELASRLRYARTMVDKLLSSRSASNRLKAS
Sequence of CDK1/CyclinB (h) (P06493 whole entry): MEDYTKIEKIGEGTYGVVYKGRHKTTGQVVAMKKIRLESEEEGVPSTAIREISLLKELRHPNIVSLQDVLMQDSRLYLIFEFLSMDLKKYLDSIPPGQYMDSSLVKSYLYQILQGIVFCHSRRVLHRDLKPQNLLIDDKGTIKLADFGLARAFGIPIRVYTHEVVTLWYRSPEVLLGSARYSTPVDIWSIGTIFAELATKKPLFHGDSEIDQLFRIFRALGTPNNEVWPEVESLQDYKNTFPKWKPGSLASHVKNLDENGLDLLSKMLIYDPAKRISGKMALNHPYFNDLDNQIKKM
Sequence of CDK1/CyclinB (h) (P14635 whole entry partner): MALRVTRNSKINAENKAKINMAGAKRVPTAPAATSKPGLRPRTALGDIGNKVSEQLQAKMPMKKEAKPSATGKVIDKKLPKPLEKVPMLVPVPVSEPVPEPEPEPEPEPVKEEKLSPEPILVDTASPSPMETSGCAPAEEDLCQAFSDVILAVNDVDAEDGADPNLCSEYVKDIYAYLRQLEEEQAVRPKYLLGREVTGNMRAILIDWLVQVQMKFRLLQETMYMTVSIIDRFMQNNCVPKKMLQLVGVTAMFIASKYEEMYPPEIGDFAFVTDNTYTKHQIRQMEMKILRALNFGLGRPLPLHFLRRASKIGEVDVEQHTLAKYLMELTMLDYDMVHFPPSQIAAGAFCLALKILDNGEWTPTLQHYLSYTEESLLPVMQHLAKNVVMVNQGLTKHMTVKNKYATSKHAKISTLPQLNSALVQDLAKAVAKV
Sequence of CDK4/CyclinD1 (h) (P11802 whole entry): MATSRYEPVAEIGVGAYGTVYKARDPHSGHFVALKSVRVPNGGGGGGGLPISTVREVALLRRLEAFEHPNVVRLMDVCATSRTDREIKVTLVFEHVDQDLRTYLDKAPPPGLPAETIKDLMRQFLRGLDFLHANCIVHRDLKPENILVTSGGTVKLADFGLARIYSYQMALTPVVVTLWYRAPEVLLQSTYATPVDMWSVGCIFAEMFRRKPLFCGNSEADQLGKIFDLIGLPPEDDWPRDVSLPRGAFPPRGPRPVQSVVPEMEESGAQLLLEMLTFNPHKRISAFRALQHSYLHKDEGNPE
Sequence of CDK4/CyclinD1 (h) (P24385 whole entry partner): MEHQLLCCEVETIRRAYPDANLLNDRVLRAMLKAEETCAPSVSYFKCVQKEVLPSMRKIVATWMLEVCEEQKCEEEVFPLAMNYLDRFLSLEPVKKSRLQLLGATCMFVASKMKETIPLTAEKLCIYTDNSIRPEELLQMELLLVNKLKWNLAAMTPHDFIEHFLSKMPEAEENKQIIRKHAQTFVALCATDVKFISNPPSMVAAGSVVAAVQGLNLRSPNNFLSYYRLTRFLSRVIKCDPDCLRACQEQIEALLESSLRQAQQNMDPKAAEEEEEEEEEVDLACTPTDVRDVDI
Sequence of GSK3β (h) (P49841 whole entry): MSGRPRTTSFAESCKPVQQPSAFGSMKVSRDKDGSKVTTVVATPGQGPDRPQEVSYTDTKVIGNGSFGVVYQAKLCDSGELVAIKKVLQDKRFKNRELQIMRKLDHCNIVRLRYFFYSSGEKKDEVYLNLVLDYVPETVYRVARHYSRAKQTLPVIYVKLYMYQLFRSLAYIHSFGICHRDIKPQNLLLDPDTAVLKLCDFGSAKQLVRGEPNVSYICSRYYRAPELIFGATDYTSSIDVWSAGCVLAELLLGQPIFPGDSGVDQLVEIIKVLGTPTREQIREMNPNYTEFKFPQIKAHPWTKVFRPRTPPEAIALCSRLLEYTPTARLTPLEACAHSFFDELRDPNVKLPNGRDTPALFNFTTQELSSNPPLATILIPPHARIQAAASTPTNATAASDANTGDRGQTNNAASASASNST
Sequence of PLK4 (h) (O00444 whole entry): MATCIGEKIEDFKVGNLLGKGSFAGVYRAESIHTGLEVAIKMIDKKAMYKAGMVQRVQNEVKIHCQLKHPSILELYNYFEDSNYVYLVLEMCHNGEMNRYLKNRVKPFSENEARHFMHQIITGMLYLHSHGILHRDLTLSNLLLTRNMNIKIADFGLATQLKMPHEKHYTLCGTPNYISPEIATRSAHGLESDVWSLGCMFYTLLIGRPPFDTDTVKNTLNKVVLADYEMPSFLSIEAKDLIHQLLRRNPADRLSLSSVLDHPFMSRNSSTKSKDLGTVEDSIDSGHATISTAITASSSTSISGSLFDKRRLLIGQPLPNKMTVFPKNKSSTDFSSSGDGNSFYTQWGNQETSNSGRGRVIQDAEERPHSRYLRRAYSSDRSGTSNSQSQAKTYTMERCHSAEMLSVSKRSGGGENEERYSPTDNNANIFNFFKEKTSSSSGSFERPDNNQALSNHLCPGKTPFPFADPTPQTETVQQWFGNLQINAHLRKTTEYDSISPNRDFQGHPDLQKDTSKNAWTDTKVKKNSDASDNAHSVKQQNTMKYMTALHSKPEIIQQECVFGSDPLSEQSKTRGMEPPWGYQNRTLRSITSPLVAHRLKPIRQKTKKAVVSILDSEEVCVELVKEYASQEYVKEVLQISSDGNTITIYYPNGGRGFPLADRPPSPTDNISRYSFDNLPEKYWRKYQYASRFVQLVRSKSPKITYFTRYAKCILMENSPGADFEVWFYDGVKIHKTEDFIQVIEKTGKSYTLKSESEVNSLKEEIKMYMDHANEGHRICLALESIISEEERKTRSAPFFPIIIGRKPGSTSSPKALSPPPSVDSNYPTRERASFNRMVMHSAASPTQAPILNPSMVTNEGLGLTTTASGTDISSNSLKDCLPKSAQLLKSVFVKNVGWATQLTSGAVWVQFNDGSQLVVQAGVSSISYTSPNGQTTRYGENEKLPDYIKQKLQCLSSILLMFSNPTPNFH

Row | SMILES | IC50 (H1299) | IC50 (PLK1 T210D (h)) | IC50 (GSK3β (h)) | IC50 (AuroraB (h)) | IC50 (PLK4 (h)) | IC50 (CDK4/CyclinD1 (h)) | IC50 (HCT-116) | IC50 (CDK1/CyclinB (h))
1 | O=C1NCc2cccc(c2)-c2ccnc(n2)Nc2cc(ccc2Cl)CN2C[C@H](O)C[C@@H]12 [Compound 52] | > 10 µM | > 10 µM | > 10 µM | > 10 µM | > 10 µM | > 10 µM | > 10 µM | > 10 µM
2 | O=C1NCc2cccc(c2)-c2ccnc(n2)Nc2ccc(cc2)CN2CCC[C@@H]12 [Compound 54] | > 10 µM | > 10 µM | > 10 µM | > 10 µM | > 10 µM | 7.41 µM | > 10 µM | > 10 µM
3 | O=C1NCc2cccc(c2)-c2ccnc(n2)Nc2ccc(cc2)CN2C[C@H](O)C[C@@H]12 [Compound 55] | > 10 µM | > 10 µM | > 10 µM | > 10 µM | > 10 µM | > 10 µM | > 10 µM | > 10 µM
4 | O=C1NCc2ccc(cc2)-c2ccnc(n2)Nc2ccc(N3CCOCC3)c(c2)CN2C[C@H](O)C[C@@H]12 [Compound 56] | > 10 µM | > 10 µM | > 10 µM | > 10 µM | ~10 µM | > 10 µM | > 10 µM | > 10 µM
5 | O=C1NCc2cccc(c2)-c2ccnc(n2)Nc2ccccc2CN2CCC[C@@H]12 [Compound 57] | > 10 µM | > 10 µM | > 10 µM | > 10 µM | > 10 µM | > 10 µM | > 10 µM | > 10 µM
6 | COc1cc2cc(c1)Nc1nccc(n1)-c1ccc(OC)c(c1)CN(C)CCNC(=O)C1CCN(CC1)C2 [Compound 67] | > 10 µM | > 10 µM | 3.09 µM | 5.13 µM | 1.51 µM | > 10 µM | > 10 µM | > 10 µM
7 | COc1cc2cc(c1)Nc1nccc(n1)-c1ccc(OC)c(c1)CN(C)CCCNC(=O)C1CCN(CC1)C2 [Compound 73] | > 10 µM | > 10 µM | > 10 µM | > 10 µM | 2.57 µM | > 10 µM | 3.09 µM | > 10 µM
8 | COc1ccc2cc1CN(C)CCNC(=O)C1CCN(CC1)Cc1cc(NCCc3ccccc3)cc(c1)Nc1nccc-2n1 [Compound 74] | > 10 µM | > 10 µM | > 10 µM | > 10 µM | 2.95 µM | > 10 µM | 4.68 µM | > 10 µM

The next lines start with the values.

Row | IC50 (H1299) | IC50 (PLK1 T210D (h)) | IC50 (GSK3β (h)) | IC50 (AuroraB (h)) | IC50 (PLK4 (h)) | IC50 (CDK4/CyclinD1 (h)) | IC50 (HCT-116) | IC50 (CDK1/CyclinB (h)) | SMILES
9 | > 10 µM | > 10 µM | > 10 µM | > 10 µM | > 10 µM | > 10 µM | > 10 µM | > 10 µM | CC(C)(C)O[C@@H]1C[C@H]2C(=O)NCc3cccc(c3)-c3ccnc(n3)Nc3ccccc3CN2C1 [Compound 58]
10 | > 10 µM | > 10 µM | 1.91 µM | > 10 µM | 0.871 µM | > 10 µM | 2.75 µM | > 10 µM | COc1cc2cc(c1)Nc1nccc(n1)-c1ccc(cc1)CN(C)CCNC(=O)C1CCN(CC1)C2 [Compound 62]
11 | > 10 µM | > 10 µM | 3.24 µM | > 10 µM | 1.23 µM | > 10 µM | > 10 µM | > 10 µM | CC(C)Nc1cc2cc(c1)Nc1nccc(n1)-c1ccc(cc1)CN(C)CCCNC(=O)C1CCN(CC1)C2 [Compound 65]
12 | > 10 µM | > 10 µM | 1.07 µM | > 10 µM | 1.35 µM | > 10 µM | 1.02 µM | > 10 µM | COc1cc2cc(c1)Nc1nccc(n1)-c1ccc(cc1)CN(C)CCCNC(=O)C1CCN(CC1)C2 [Compound 66]
13 | 8.13 µM | > 10 µM | 2.95 µM | > 10 µM | 2.63 µM | 3.63 µM | 9.12 µM | > 10 µM | O=C1NCCOc2cccc(c2)-c2ccnc(n2)Nc2ccc(N3CCOCC3)c(c2)CN2CCC1CC2 [Compound 94]

Source: patent US8609836B2, “4-aryl-2-anilino-pyrimidines” (Janssen Pharmaceutica NV, priority 2008, dated 2013)
